Source: patent US6326023A, “Synergistic anti-malarial formulation” (priority 2000, dated 2001)

Columns and labels:
[1] = system: P. yoelii nigeriensis; details: intramuscular; chloroquine, mefloquine and quinine resistant strain; cited from earlier work
[2] = system: P. yoelii nigeriensis (MDR II); test: Blood schizonticidal activity of α/β arteether formulation in neutralized oil by oral route in infected Swiss mice; assay type: in vivo, P. yoelii nigeriensis (MDR II) in Swiss mice
Procedure: Efficacy of oral administration of arteether formulation for control of blood induced multi-drug resistant P. yoebi nigerensis (MDR II) in Swiss mice (25±g) was evaluated. The mice was infected intraperitoneafly with 1×10^5 parasitized RBC, and drug treatment 10,15,20 and 30 mg/kg was given once daily for five consecutive days (starting from day 0 to day 4). Blood smears made from tail blood and stained with giemsa were examined periodically till 28 days of infection to record parasitaemia levels and number of surviving/cured mice till 28 days.

[3] = system: P. yoelli nigeriensis (MDR II); test: Blood schizontocidal action of arteether α/β formulation by rectal route in infected Swiss mice; assay type: in vivo, P. yoelli nigeriensis (MDR II) in Swiss mice
Procedure: α,β-Arteether mixture dissolved in neutralized ground-nut oil was administered to P. yoelli nigeriewis (MDR II) infected mice at 10 mg/kg to 20 mg/kg dose from day 0 to day 2 (for 3 consecutive days) by intra-rectal route. Drug was administered with 0.05-0.25 ml oil (vehicle) in single dose or in 2 divided dose daily. Parasitaemia was recorded daily from tail blood smears stained with Giemsa stain and results are given as % parasitaemia (means±SD). […] Presumptive arteether rectal formulation or suppository administration can save mortality in severe/complicated cases. α/β Arteether rectal route controls the severity of infection and prevents mortality in severe complicated comatose malaria cases and will be specially useful in infants, children and those having frequent vomiting and can not be given oral formulation initially. […] Rectal route α/β arteether formulation remains 1st line of emergency treatment of comatose P. falciparum cases in areas of MDR.

[4] = system: P. yoelli nigeriensis (MDR II); test: Blood schizonticidal activity of oral arteether formulation prepared in DMSO-distilled water in infected Swiss mice; assay type: in vivo, P. yoelli nigeriensis (MDR II) in Swiss mice; details: for Bioavailability by oral route: suspension in DMSO/distilled water
Procedure: Swiss mice 25±1 gm infected intraperitoneally with 1×10^7 parasitized rbcs were administered α/β formulation, prepared in DMSO (3-4 drop) and then suspended in distilled water by oral administration at various doses ranging between 40-100 mg/kg for 5 consecutive days.
Parasitaemia was recorded periodically from tail blood smears upto 28 days of observation. Both 60 and 80 mg/kg×5 doses were able to eliminate the prasitaemia upto 28 days of observation and were curative. […] A very high dose is required for curative action against MDR of infection and its bioavailability by oral route as suspension in D.W. is low.

[5] = system: P. knowlesi/P. fragile; details: intramuscular, rhesus monkey; cited from earlier work

## CCOC1O[C@@H]2O[C@@]3(C)CC[C@H]4[C@H](C)CC[C@@H]([C@H]1C)[C@@]24OO3 (stereo partly drawn) [α/β arteether]
[1]
  Antimalarial activity: shows antimalarial activity
[2]; 10 mg/kg × 5 days, Day 6
  Parasitaemia (mean ± SD): 0.9 ± 1.0%
[2]; 10 mg/kg × 5 days, Day 9
  Parasitaemia (mean ± SD): 41 ± 32.8%
[2]; 10 mg/kg × 5 days, Day 12
  Parasitaemia (mean ± SD): 0.0%
[2]; 10 mg/kg × 5 days, Day 12, of 8
  Number of mice surviving: 2
[2]; 10 mg/kg × 5 days, Day 14
  Parasitaemia (mean ± SD): 0.0%
[2]; 10 mg/kg × 5 days, Day 14, of 8
  Number of mice surviving: 2
[2]; 10 mg/kg × 5 days, Day 28
  Parasitaemia (mean ± SD): 0.0%
[2]; 10 mg/kg × 5 days, Day 28, of 8
  Number of mice surviving: 2
[2]; 15 mg/kg × 5 days, Day 6
  Parasitaemia (mean ± SD): 0.0%
[2]; 15 mg/kg × 5 days, Day 9
  Parasitaemia (mean ± SD): 5.12 ± 5.7%
[2]; 15 mg/kg × 5 days, Day 12
  Parasitaemia (mean ± SD): 0.0%
[2]; 15 mg/kg × 5 days, Day 12, of 8
  Number of mice surviving: 4
[2]; 15 mg/kg × 5 days, Day 14
  Parasitaemia (mean ± SD): 0.0%
[2]; 15 mg/kg × 5 days, Day 14, of 8
  Number of mice surviving: 4
[2]; 15 mg/kg × 5 days, Day 28
  Parasitaemia (mean ± SD): 0.0%
[2]; 15 mg/kg × 5 days, Day 28, of 8
  Number of mice surviving: 4
[2]; 20 mg/kg × 5 days, Day 6
  Parasitaemia (mean ± SD): 0.0%
[2]; 20 mg/kg × 5 days, Day 9
  Parasitaemia (mean ± SD): 3.75 ± 10.6%
[2]; 20 mg/kg × 5 days, Day 12
  Parasitaemia (mean ± SD): 18.8 ± 32.5%
[2]; 20 mg/kg × 5 days, Day 14
  Parasitaemia (mean ± SD): 0.0%
[2]; 20 mg/kg × 5 days, Day 14, of 8
  Number of mice surviving: 5
[2]; 20 mg/kg × 5 days, Day 28
  Parasitaemia (mean ± SD): 0.0%
[2]; 20 mg/kg × 5 days, Day 28, of 8
  Number of mice surviving: 5
[2]; 30 mg/kg × 5 days, Day 6
  Parasitaemia (mean ± SD): 0.0%
[2]; 30 mg/kg × 5 days, Day 9
  Parasitaemia (mean ± SD): 0.0%
[2]; 30 mg/kg × 5 days, Day 12
  Parasitaemia (mean ± SD): 0.0%
[2]; 30 mg/kg × 5 days, Day 14
  Parasitaemia (mean ± SD): 0.0%
[2]; 30 mg/kg × 5 days, Day 14, of 8
  Number of mice surviving: 8
[2]; 30 mg/kg × 5 days, Day 28
  Parasitaemia (mean ± SD): 0.0%
[2]; 30 mg/kg × 5 days, Day 28, of 8
  Number of mice surviving: 8
[3]; neutralized ground-nut oil, rectal
  Drug absorption by rectal route: fairly rapid
[3]; rectal, 10 mg/kg × 3 days in 2 divided doses at 6 hrs, Day 4
  Parasitaemia (mean ± SD): 0.0%
[3]; rectal, 10 mg/kg × 3 days in 2 divided doses at 6 hrs, Day 5
  Parasitaemia (mean ± SD): 0.0%
[3]; rectal, 10 mg/kg × 3 days in 2 divided doses at 6 hrs, Day 11
  Parasitaemia (mean ± SD): 10.25 ± 10.0%
[3]; rectal, 10 mg/kg × 3 days in 2 divided doses at 6 hrs, Day 28
  Parasitaemia (mean ± SD): 0.0%
[3]; rectal, 10 mg/kg × 3 days in 2 divided doses, Day 11, 8 at Day 5
  Number of animals (in parenthesis): 4
[3]; rectal, 10 mg/kg × 3 days in 2 divided doses, Day 28, 8 at Day 5
  Number of animals (in parenthesis): 1
[3]; rectal, 10 mg/kg × 3 days, Day 4
  Parasitaemia (mean ± SD): 0.0002 ± 0.001%
[3]; rectal, 10 mg/kg × 3 days, Day 4, of 8
  Number of animals negative (-ve): 6
[3]; rectal, 10 mg/kg × 3 days, Day 5
  Parasitaemia (mean ± SD): 0.002 ± 0.080%
[3]; rectal, 10 mg/kg × 3 days, Day 5, of 8
  Number of animals negative (-ve): 6
[3]; rectal, 10 mg/kg × 3 days, Day 11
  Parasitaemia (mean ± SD): 0.0%
[3]; rectal, 10 mg/kg × 3 days, Day 11, 8 at Day 5
  Number of animals (in parenthesis): 3
[3]; rectal, 10 mg/kg × 3 days, Day 28
  Parasitaemia (mean ± SD): 0.0%
[3]; rectal, 10 mg/kg × 3 days, Day 28, 8 at Day 5
  Number of animals (in parenthesis): 3
[3]; rectal, 15 mg/kg × 3 days in 2 divided doses at 6 hrs, Day 4
  Parasitaemia (mean ± SD): 0.0%
[3]; rectal, 15 mg/kg × 3 days in 2 divided doses at 6 hrs, Day 5
  Parasitaemia (mean ± SD): 0.0%
[3]; rectal, 15 mg/kg × 3 days in 2 divided doses at 6 hrs, Day 11
  Parasitaemia (mean ± SD): 0.0%
[3]; rectal, 15 mg/kg × 3 days in 2 divided doses at 6 hrs, Day 28
  Parasitaemia (mean ± SD): 0.0%
[3]; rectal, 15 mg/kg × 3 days in 2 divided doses, Day 11, 8 at Day 5
  Number of animals (in parenthesis): 4
[3]; rectal, 15 mg/kg × 3 days in 2 divided doses, Day 28, 8 at Day 5
  Number of animals (in parenthesis): 4
[3]; rectal, 15 mg/kg × 3 days, Day 4
  Parasitaemia (mean ± SD): 0.0%
[3]; rectal, 15 mg/kg × 3 days, Day 5
  Parasitaemia (mean ± SD): 0.0%
[3]; rectal, 15 mg/kg × 3 days, Day 11
  Parasitaemia (mean ± SD): 0.0%
[3]; rectal, 15 mg/kg × 3 days, Day 11, 8 at Day 5
  Number of animals (in parenthesis): 4
[3]; rectal, 15 mg/kg × 3 days, Day 28
  Parasitaemia (mean ± SD): 0.0%
[3]; rectal, 15 mg/kg × 3 days, Day 28, 8 at Day 5
  Number of animals (in parenthesis): 4
[3]; rectal, 20 mg/kg × 3 days in 2 divided doses at 6 hrs, Day 4
  Parasitaemia (mean ± SD): 0.0%
[3]; rectal, 20 mg/kg × 3 days in 2 divided doses at 6 hrs, Day 5
  Parasitaemia (mean ± SD): 0.0%
[3]; rectal, 20 mg/kg × 3 days in 2 divided doses at 6 hrs, Day 11
  Parasitaemia (mean ± SD): 0.0%
[3]; rectal, 20 mg/kg × 3 days in 2 divided doses at 6 hrs, Day 28
  Parasitaemia (mean ± SD): 0.0%
[3]; rectal, 20 mg/kg × 3 days in 2 divided doses, Day 11, 8 at Day 5
  Number of animals (in parenthesis): 6
[3]; rectal, 20 mg/kg × 3 days in 2 divided doses, Day 28, 8 at Day 5
  Number of animals (in parenthesis): 6
[3]; rectal, 20 mg/kg × 3 days, Day 4
  Parasitaemia (mean ± SD): 0.0%
[3]; rectal, 20 mg/kg × 3 days, Day 5
  Parasitaemia (mean ± SD): 0.0%
[3]; rectal, 20 mg/kg × 3 days, Day 11
  Parasitaemia (mean ± SD): 0.0%
[3]; rectal, 20 mg/kg × 3 days, Day 11, 8 at Day 5
  Number of animals (in parenthesis): 5
[3]; rectal, 20 mg/kg × 3 days, Day 28
  Parasitaemia (mean ± SD): 0.0%
[3]; rectal, 20 mg/kg × 3 days, Day 28, 8 at Day 5
  Number of animals (in parenthesis): 5
[3]; rectal, 10.0, 15.0 and 20.0 mg/kg, upto 5 days
  Suppression of parasitaemia after treatment: suppressed the parasitaemia
[4]; Plasmodium yoelii, po, read-out: Curative dose / dose needed for total clearance
  minimal effective dose: 60 mg/kg
[4]; oral, DMSO-distilled water, 40 mg/kg × 5, Day 4
  Parasitaemia: Nil
[4]; oral, DMSO-distilled water, 40 mg/kg × 5, Day 7
  Parasitaemia: Nil
[4]; oral, DMSO-distilled water, 40 mg/kg × 5, Day 10
  Parasitaemia: 3.86%
[4]; oral, DMSO-distilled water, 40 mg/kg × 5, Day 14
  Parasitaemia: 3.5 ± 8.5%
[4]; oral, DMSO-distilled water, 40 mg/kg × 5, Day 21
  Parasitaemia: Nil
[4]; oral, DMSO-distilled water, 40 mg/kg × 5, Day 28
  Parasitaemia: Nil
[4]; oral, DMSO-distilled water, 40 mg/kg × 5, MDR strain
  Suppression of parasitaemia: transient suppression of parasitaemia, but was not curative
[4]; oral, DMSO-distilled water, 60 mg/kg × 5, Day 4
  Parasitaemia: Nil
[4]; oral, DMSO-distilled water, 60 mg/kg × 5, Day 7
  Parasitaemia: Nil
[4]; oral, DMSO-distilled water, 60 mg/kg × 5, Day 10
  Parasitaemia: Nil
[4]; oral, DMSO-distilled water, 60 mg/kg × 5, Day 14
  Parasitaemia: Nil
[4]; oral, DMSO-distilled water, 60 mg/kg × 5, Day 21
  Parasitaemia: Nil
[4]; oral, DMSO-distilled water, 60 mg/kg × 5, Day 28
  Parasitaemia: Nil
[4]; oral, DMSO-distilled water, 80 mg/kg × 5, Day 4
  Parasitaemia: Nil
[4]; oral, DMSO-distilled water, 80 mg/kg × 5, Day 7
  Parasitaemia: Nil
[4]; oral, DMSO-distilled water, 80 mg/kg × 5, Day 10
  Parasitaemia: Nil
[4]; oral, DMSO-distilled water, 80 mg/kg × 5, Day 14
  Parasitaemia: Nil
[4]; oral, DMSO-distilled water, 80 mg/kg × 5, Day 21
  Parasitaemia: Nil
[4]; oral, DMSO-distilled water, 80 mg/kg × 5, Day 28
  Parasitaemia: Nil
[4]; oral, DMSO-distilled water, 100 mg/kg × 5, Day 4
  Parasitaemia: Nil
[4]; oral, DMSO-distilled water, 100 mg/kg × 5, Day 7
  Parasitaemia: Nil
[4]; oral, DMSO-distilled water, 100 mg/kg × 5, Day 10
  Parasitaemia: Nil
[4]; oral, DMSO-distilled water, 100 mg/kg × 5, Day 14
  Parasitaemia: Nil
[4]; oral, DMSO-distilled water, 100 mg/kg × 5, Day 21
  Parasitaemia: Nil
[4]; oral, DMSO-distilled water, 100 mg/kg × 5, Day 28
  Parasitaemia: Nil
[4]; oral, DMSO-distilled water, 60 and 80 mg/kg × 5, upto 28 days
  Curative action (elimination of parasitaemia): curative
[4]
  Bioavailability by oral route: low
[4]; listed as arteether α/β
  Bioavailability by oral route: of lower order
[5]
  Cure of experimental cerebral malaria: cures experimental cerebral malaria infections
